Results as given in patent publication US11859252B2, “Diagnostic and therapeutic methods for cancer” (Genentech, Inc., priority 2017, dated 2024).
“Also recorded” adds a separate entry of the source.

Experiments:
[1] = tested on: NCI-H2122 lung xenograft tumor; test: NCI-H2122 lung xenograft tumor model
Protocol: The formulations were mixed well by vortexing before dosing. Test articles were stored in a refrigerator set to maintain a temperature range of 4° C.-7° C.
Only animals that appeared to be healthy and that were free of obvious abnormalities were used for each study. Tumor volumes were determined using digital calipers (Fred V. Fowler Company, Inc.) using the formula (L×W×W)/2. […] Mice were weighed twice a week using a standard scale.

[2] = tested on: A549 cells; test: Clonogenic (colony growth) assay; format: cell-based
Protocol: (§1) Cells were plated in duplicate in 6-well plates at 10,000 cells/well, allowed to attach overnight and treated for 8 days with the indicated compounds. Media with appropriate compounds was replenished every 72 hours. At 8 days cells were rinsed once with PBS, fixed and stained with crystal violet solution (Sigma Aldrich, HT90132) for 20 minutes and washed with water.

[3] = tested on: A549 cells; test: Apoptosis: cleaved PARP Western blot and Annexin V/propidium iodide flow cytometry; format: cell-based; conditions: AZ-628 combined with cobimetinib; 48 hours; FIG. 2D-2E
Protocol: (§2) Cells lysed in lysis buffer (0.5% NP40, 20 mM Tris, pH 7.5, 137 mM NaCl, 10% glycerol, 1 mM EDTA) plus protease inhibitor mixture-complete mini (Roche Applied Science, 11836170001) and phosphatase inhibitor mix (Thermo, 78426). Lysates were centrifuged at 15,000 rpm for 10 minutes and the protein concentration determined using BCA (Thermo, 23227). Equal amounts of protein were subjected to SDS-PAGE NuPAGE 4-12% Bis-Tris Gel (Novex, WG-1403) and transferred to nitrocellulose membrane (BioRad, 170-4159). After blocking in blocking buffer (Li-Cor, 927-40000), membranes were incubated with the indicated primary antibodies and analyzed either by the addition of secondary antibodies IRDye 680LT Goat anti-Mouse IgG (H+L) (Li-Cor, 926-68050) or IRDye 800CW goat anti-Rabbit IgG (H+L) (Li-Cor, 926-32211). The membranes were visualized on the LiCor Odyssey CLx Scanner.

[4] = tested on: DUSP6 and SPRY4; test: RNA sequencing of MAPK transcriptional targets; format: cell-based; conditions: 0.1 μM AZ-628 combined with cobimetinib; six hours; four KRAS mutant lung cancer cell lines; FIG. 2C
Protocol: Cells were seeded overnight and treated with AZ-628 and cobimetinib either singly (0.1 μM) or in combination (0.1 μM each) for 6 hours. Control cells were treated with DMSO (0.2% final concentration). Total RNA was extracted as per manufacturer's protocol using RNEasy mini kits with on-column DNAse digestion (Qiagen #74106 and #79254). Quality control of samples was done to determine RNA quantity and quality prior to their processing by RNA-seq. The concentration of RNA samples was determined using NanoDrop 8000 (Thermo Scientific) and the integrity of RNA was determined by Fragment Analyzer (Advanced Analytical Technologies). 0.5 μg of total RNA was used as an input material for library preparation using TruSeq RNA Sample Preparation Kit v2 (Illumina). Size of the libraries was confirmed using 2200 TapeStation and High Sensitivity D1000 screen tape (Agilent Technologies) and their concentration was determined by qPCR based method using Library quantification kit (KAPA). The libraries were multiplexed and then sequenced on Illumina HiSeq2500 (Illumina) to generate 30M of single-end 50 base pair reads.
Reads were mapped to the hg19 genome using RefSeq gene models with the aligner GSNAP. […] Significance for linear model terms was determined by moderated t-tests as implemented in the limma software.

[5] = tested on: NRAS mutant melanoma cell line; test: Viability of NRAS mutant melanoma versus BRAF-V600E and wild-type lines; format: cell-based
Protocol: Compounds were screened in nine-point dose response using a three-fold dilution. Cells were seeded into 384-well plates 24 hours prior to compound addition. Cells were then incubated with compound for 72 hours or 120 hours before assaying viability (CellTiter-Glo, Promega). Assays were performed in biological triplicate. […] Mean viability is equivalent to the area under the log-dose/viability curve divided by the total number of tested doses.

[6] = tested on: SW48 isogenic cell line; test: SW48 isogenic KRAS knock-in cells, crystal violet and pERK Western blot; format: cell-based; conditions: AZ-628 starting at 0.1 μM, cobimetinib 250 nM; FIGS. 6F-6G
Protocol: as §1, §2

[7] = tested on: 322 cell lines (pancreas, lung, colorectal, skin, ovary and blood); test: 322 cell line screen, AZ-628 and cobimetinib single agents and co-dilution; format: cell-based
Protocol: (§3) Compounds were screened in nine-point dose response using a three-fold dilution. Cells were seeded into 384-well plates 24 hours prior to compound addition. Cells were then incubated with compound for 72 hours or 120 hours before assaying viability (CellTiter-Glo, Promega). Assays were performed in biological triplicate. Cells were incubated (37° C., 5% CO2) in RPMI-1640, 2.5% FBS (72 hour assay) or 5% FBS (120 hour assay), and 2 mM glutamine throughout the assay. The reported IC50 and mean viability metrics are as follows: IC50 is the dose at which the estimated inhibition is 50% relative to untreated wells (i.e., absolute IC50). Mean viability is equivalent to the area under the log-dose/viability curve divided by the total number of tested doses.
(§4) For combination synergy studies, cells were plated in 384-well plates (Corning) and treated with varying concentrations of compound, either alone or in combination for 72 hours. Cell viability was determined using CellTiter-Glo Luminescent Cell Viability Assay (Promega, G7573). Synergistic effects were determined using the Bliss independence analysis methods (Greco et al. Pharmacol. Rev. 47: 331-385, 1995; Chou and Talalay. Adv. Enzyme Regul. 22:27-55, 1984; Chou. Cancer Res. 70: 440-446, 2010; Bliss. Ann. Appl. Biol. 25: 31, 1939).

[8] = tested on: panel of 213 tumor cell lines; test: 213 cell line panel, co-diluted combinations with pictilisib; format: cell-based; conditions: 3 days, FIG. 7A
Protocol: as §3, §4

[9] = tested on: pMEK, pERK, pRSK, pAKT; test: Immunoblot of pathway markers after compound treatment; format: cell-based; conditions: A549
Protocol: as §2

Cc1ccc(NC(=O)c2cccc(C(C)(C)C#N)c2)cc1Nc1ccc2ncn(C)c(=O)c2c1 [AZ-628]
tumor growth, combination with cobimetinib ([1]; NCI-H2122, AZ-628+GDC-0973, FIG. 3A): robust combination effect | tolerability / body weight ([1]; NCI-H2122 xenograft mice, combination with cobimetinib, FIG. 3B): well tolerated in the mice, resulting in little or minimal changes in body weight post-treatment | single-agent effect on cell growth ([2]; 8-day clonogenic, 50-100 nM cobimetinib, 100 nM AZ-628): had little effect on cell growth on their own | synergy with cobimetinib in colony formation ([2]; 8 days, crystal violet, FIG. 2F, 5E): marked synergy | induction of apoptosis [3]: significant induction of cell apoptosis; also recorded: increased cleaved PARP | downregulation of DUSP6 and SPRY4 [4]: downregulation of these genes was more profound than expected if the effect of combining the two single agents was merely additive | effect on mean viability, NRAS mutant vs BRAF-V600E ([5]; FIG. 8A): approximately equivalent effects on mean viability | cell viability and 1050, NRAS mutant vs BRAF-V600E ([5]; separate study, FIGS. 8C and 8D): had an equivalent effect in NRAS mutant and BRAF-V600E mutant cell lines | synergy with cobimetinib by KRAS knock-in [6]: displayed greater synergy than KRAS-G12D and KRAS-G12C knock-in cells; also recorded: greater in KRAS-G13D mutant SW48 cells compared to KRAS-G12D or KRAS-G12C mutant SW48 cells | association of combination sensitivity with KRAS-G13D ([7]; AZ-628 and cobimetinib, FIGS. 6A-6C): significant association between sensitivity to the RAF plus MEK inhibitor combination and presence of the G13D mutation; also recorded: KRAS-G13D mutant cell lines are more sensitive to the combination of RAF and MEK inhibition | synergy score (positive Bliss excess) with cobimetinib by genotype ([7]; co-dilution with cobimetinib, 3 days, FIG. 5A): Significantly higher synergy scores were observed in KRAS and NRAS mutant cell lines compared to either BRAF-V600 mutants or wild-type; also recorded: greater synergy in RAS mutant (G12/G13/Q61) cell lines, and a subset of RAS/RAF wild-type cell lines relative to BRAF-V600 cell lines | synergy (positive Bliss excess) with pictilisib [8]: large general increased synergy in the AZ-628/pictilisib combination compared to the cobimetinib/pictilisib combination; also recorded: synergizes with pan-PI3K inhibitor, pictilisib (GDC-0941) | pMEK accumulation and signaling to ERK ([9]; AZ-628 combined with pictilisib, 24 hours, FIG. 7G): prevent the accumulation of pMEK and abrogate downstream signaling to ERK | pAKT levels ([9]; AZ-628 in combination with cobimetinib, FIG. 2B): little observed impact on pAKT levels | MAPK pathway output (pMEK, pERK, pRSK) ([9]; RAF inhibitor 0.1-10 μM with or without fixed dose cobimetinib, 24 hours, FIG. 2B): only in combination with cobimetinib effectively inhibited MAPK pathway output
